This is an account of results in patent publication US4997850A, “Treating agent for osteroarthritis” (Kureha Kagaku Kogyo Kabushiki Kaisha, priority 1989, dated 1991).

The test system of series [1] is proteoglycan (PG) release under IL-1α. Briefly: Proteoglycan (PG) release from prelabelled cultured cartilage matrix with addition of IL-1α. It counts as cell-based. Particulars: concentration not given. How it is done:
Further, to a cultured cartilage matrix, in which PG is prelabelled in advance with 1 μCi of Na2^35 SO4, 20 units of IL-1α was added to each group including control group and 10 μM of PAL, 100 μM of PAL or 10 μM of ACP was added to each test group and studied the effect of each compound to the PG release from the cells.

Series [2] can be described thus: Acute toxicity (LD50) of further compounds, determined in the same manner as ACP. It counts as in vivo. Particulars: same manner as ACP (oral or subcutaneous, mice and rats). As for the experimental part:
For oral administration, a suspension of ACP dispersed in an aqueous solution of 0.5% methylcellulose and 0.4% Tween 80 (nonionic surfactant, manufactured by TOKYO KASEI, Co., Ltd.) was prepared and administered to the animals via a stomach sonde. For subcutaneous administration, a suspension of ACP dispersed in an aqueous physiological saline solution containing 0.5% of carboxymethyl cellulose sodium (hereinafter referred to as "CMC") was prepared and injected to the animals with a syringe.
Further, the acute toxicities (LD50) of […]

For `CCCC(=O)Oc1ccc(C(OC(=O)CCC)OC(=O)CCC)cc1OC(=O)CCC` [3,4-di-n-butyryloxybenzylidene di-n-butyrate], the “inhibiting activity on PG release (further compounds)” value (from here on “inhibiting activity on PG release”) in series [1] is on record as “same effects”. For the same compound, the “acute toxicities (LD50), compared with ACP” value in series [2] is on record as “approximately same values”.
`CCCCCCCCCCCCCCCC(=O)Oc1ccc(C(OC(=O)CCCCCCCCCCCCCCC)OC(=O)CCCCCCCCCCCCCCC)cc1OC(=O)CCCCCCCCCCCCCCC` [3,4-di-n-hexadecanoyloxybenzylidene di-n-hexadecanoate]: the “inhibiting activity on PG release” value in series [1] was “same effects”. In addition, the “acute toxicities (LD50), compared with ACP” value in series [2] was “approximately same values”.
On the same counts, the results for `CCCCCCCCCCCCCCCCCC(=O)Oc1ccc(C=O)cc1OC(=O)CCCCCCCCCCCCCCCCC` [3,4-di-n-octadecanoyloxybenzaldehyde] are “same effects” and “approximately same values”.
As for `CCCCCCCCCCCCCCCCCC(=O)Oc1ccc(C(OC(C)=O)OC(C)=O)cc1OC(=O)CCCCCCCCCCCCCCCCC` [3,4-di-n-octadecanoyloxybenzylidene diacetate], the “inhibiting activity on PG release” value in series [1] is reported as “same effects”. The “acute toxicities (LD50), compared with ACP” value in series [2] is given as “approximately same values”.
For `CCCCCCCCCCCCCC(=O)Oc1ccc(C(OC(=O)CCCCCCCCCCCCC)OC(=O)CCCCCCCCCCCCC)cc1OC(=O)CCCCCCCCCCCCC` [3,4-di-n-tetradecanoyloxybenzylidene di-n-tetradecanoate] the same measures were “same effects” and “approximately same values”.
For `CC(=O)Oc1ccc(C=O)cc1OC(C)=O` [3,4-diacetoxybenzaldehyde] the same measures were “same effects” and “approximately same values”.
Take `CC(=O)Oc1ccc(C(=O)[O-])cc1OC(C)=O.[Na+]` [3,4-diacetoxybenzoic acid sodium salt]: in series [1], the “inhibiting activity on PG release” value is on record as “same effects”. Besides, in series [2], the “acute toxicities (LD50), compared with ACP” value is reported as “approximately same values”.
On the same counts, the results for `CC(=O)Oc1ccc(C(=O)O)cc1OC(C)=O` [3,4-diacetoxybenzoic acid] are “same effects” and “approximately same values”.
Take `CCCCCCCCCCCCCCCCCC(=O)OC(OC(=O)CCCCCCCCCCCCCCCCC)c1ccc(OC(C)=O)c(OC(C)=O)c1` [3,4-diacetoxybenzylidene di-n-octadecanoate]: the “inhibiting activity on PG release” value in series [1] is recorded as “same effects”. The “acute toxicities (LD50), compared with ACP” value in series [2] was “approximately same values”.
For `O=Cc1ccc(OC(=O)c2ccccc2)c(OC(=O)c2ccccc2)c1` [3,4-dibenzoyloxybenzaldehyde] the same measures were “same effects” and “approximately same values”.
